Earlier results, collected in PMC5368910 (BMC Pharmacology & Toxicology, 2017).

System: Clostridium difficile-associated diarrhea (CDAD)
Details: stated for vancomycin and metronidazole treatments together; cited from earlier work
Source text: Despite having a clinical response rate of ~73 to 85%, vancomycin and metronidazole treatments are associated with recurrent CDAD in up to 45% of patients. Aggressive vancomycin and metronidazole treatment is also associated with disruption of the intestinal microbiota and can promote colonization by vancomycin-resistant enterococci, highlighting the need for novel treatment options. An ideal agent for the treatment of CDAD should be associated with low levels of systemic absorption, resulting in high concentrations of the drug in the colon, combined with a narrow spect ...

SMILES: Cc1ncc([N+](=O)[O-])n1CCO [metronidazole]
- recurrent CDAD, share of patients: up to 45%
